Experimental data reported in patent US10077261B2, “Imidazolin-5-one derivative useful as FASN inhibitors for the treatment of cancer” (Janssen Pharmaceutica NV, priority 2012, dated 2018).

Target: T1, hFASN enzyme (full length) (Homo sapiens, UniProt P49327)
T1 construct: 10 μL hFASN enzyme (full length, 300 ng, purified in house); made in house
Assay: Fatty Acid Synthase (FASN) inhibition scintillation proximity assay
Format: biochemical
Settings: for inhibition at 10 µM: read-out: Human FASN % inhibition @ 10 μM, 10 μM test compound; for IC50: read-out: Human FASN pIC50 (converted)
In short: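 Full-length in-house purified enzyme (300 ng) was tested in 100 mM KH2PO4 pH 7.5, 1 mM DTT with ³H-acetyl-CoA and malonyl-CoA as substrates; compounds ranged 0.01–30 μM. Reactions were stopped with streptavidin imaging beads, read by LEADseeker at 610 nm, and fitted to a 4-parameter logistic curve.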

T1 sequence (P49327 whole entry): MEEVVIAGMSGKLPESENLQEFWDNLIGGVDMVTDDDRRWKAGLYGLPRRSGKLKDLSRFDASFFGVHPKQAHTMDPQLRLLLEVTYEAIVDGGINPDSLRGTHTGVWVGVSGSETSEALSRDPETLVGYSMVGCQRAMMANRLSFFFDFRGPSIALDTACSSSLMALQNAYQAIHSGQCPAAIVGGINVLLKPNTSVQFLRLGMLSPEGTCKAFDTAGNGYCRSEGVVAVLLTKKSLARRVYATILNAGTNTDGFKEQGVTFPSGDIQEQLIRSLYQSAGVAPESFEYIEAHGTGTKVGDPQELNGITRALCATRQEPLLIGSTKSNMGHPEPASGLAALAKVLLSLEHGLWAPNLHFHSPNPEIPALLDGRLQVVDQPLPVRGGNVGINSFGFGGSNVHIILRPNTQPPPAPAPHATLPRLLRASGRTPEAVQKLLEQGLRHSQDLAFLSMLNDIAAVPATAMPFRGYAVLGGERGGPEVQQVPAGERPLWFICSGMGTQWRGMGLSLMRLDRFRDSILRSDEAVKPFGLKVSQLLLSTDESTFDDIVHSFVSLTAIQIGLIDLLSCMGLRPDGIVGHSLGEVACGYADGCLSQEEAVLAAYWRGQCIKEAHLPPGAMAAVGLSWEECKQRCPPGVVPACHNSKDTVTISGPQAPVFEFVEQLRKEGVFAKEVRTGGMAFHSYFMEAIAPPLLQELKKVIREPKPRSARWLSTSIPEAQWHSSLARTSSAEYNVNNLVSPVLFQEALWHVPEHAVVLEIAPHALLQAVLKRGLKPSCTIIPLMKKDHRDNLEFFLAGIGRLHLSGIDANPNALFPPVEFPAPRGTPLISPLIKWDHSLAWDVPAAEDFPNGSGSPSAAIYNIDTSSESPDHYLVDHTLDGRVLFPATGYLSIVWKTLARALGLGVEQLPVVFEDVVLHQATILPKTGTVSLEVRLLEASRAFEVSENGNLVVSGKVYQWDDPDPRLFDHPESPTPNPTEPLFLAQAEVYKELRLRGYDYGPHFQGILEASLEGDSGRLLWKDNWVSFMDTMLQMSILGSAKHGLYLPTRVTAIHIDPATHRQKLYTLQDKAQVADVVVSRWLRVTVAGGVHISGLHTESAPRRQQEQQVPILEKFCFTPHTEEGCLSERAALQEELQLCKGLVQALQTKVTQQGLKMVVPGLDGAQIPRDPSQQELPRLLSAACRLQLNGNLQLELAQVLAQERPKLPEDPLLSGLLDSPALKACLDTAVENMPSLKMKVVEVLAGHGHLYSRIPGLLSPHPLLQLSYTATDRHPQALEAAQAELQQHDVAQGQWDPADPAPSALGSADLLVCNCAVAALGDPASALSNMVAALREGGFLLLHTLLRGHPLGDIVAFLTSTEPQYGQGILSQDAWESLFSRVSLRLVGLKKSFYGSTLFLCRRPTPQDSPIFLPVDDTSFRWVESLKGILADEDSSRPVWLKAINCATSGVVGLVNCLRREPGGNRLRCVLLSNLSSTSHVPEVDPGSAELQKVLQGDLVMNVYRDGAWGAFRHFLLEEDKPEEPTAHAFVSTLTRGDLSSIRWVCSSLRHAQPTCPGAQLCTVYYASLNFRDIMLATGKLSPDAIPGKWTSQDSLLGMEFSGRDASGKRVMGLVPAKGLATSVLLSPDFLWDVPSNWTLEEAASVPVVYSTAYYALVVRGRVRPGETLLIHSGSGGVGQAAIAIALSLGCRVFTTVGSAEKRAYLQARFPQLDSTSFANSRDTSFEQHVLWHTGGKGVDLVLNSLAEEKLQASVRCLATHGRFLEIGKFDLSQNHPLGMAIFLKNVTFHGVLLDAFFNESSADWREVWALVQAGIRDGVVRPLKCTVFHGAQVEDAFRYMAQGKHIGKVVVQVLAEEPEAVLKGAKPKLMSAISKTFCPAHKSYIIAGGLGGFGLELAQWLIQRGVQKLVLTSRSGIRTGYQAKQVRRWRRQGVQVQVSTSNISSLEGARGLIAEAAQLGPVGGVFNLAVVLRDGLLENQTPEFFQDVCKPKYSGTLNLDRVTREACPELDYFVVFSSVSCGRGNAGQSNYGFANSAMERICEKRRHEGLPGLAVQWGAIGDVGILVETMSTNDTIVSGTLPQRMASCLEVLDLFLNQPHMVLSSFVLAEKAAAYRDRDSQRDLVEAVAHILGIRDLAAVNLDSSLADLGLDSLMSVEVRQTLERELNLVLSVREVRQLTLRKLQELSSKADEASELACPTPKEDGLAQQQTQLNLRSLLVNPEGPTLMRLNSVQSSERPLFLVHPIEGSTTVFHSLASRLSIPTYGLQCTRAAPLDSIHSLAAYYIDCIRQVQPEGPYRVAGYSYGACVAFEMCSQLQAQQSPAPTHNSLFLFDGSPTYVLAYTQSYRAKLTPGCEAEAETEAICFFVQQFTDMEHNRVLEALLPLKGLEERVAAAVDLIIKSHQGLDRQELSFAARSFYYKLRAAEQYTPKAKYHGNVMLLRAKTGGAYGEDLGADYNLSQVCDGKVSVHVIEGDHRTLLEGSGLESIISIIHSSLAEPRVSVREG

| inhibition at 10 µM | IC50 | SMILES |
| --- | --- | --- |
| 46% | 8.91 µM | COC(=O)N1CC2(C1)N=C(c1ccc(-c3ccc4c(cnn4C)c3)cc1)N(C[C@@H]1CCN(C(=O)N3CCCC3)C1)C2=O [compound 740, Methyl 6-[4-(1-methyl-1H-indazol-5-yl)phenyl]-8-oxo-7-{[(3S)-1-(pyrrolidin-1-ylcarbonyl)pyrrolidin-3-yl]methyl}-2,5,7-triazaspiro[3.4]oct-5-ene-2-carboxylate] |
| 11% | > 10 µM | CS(=O)(=O)N1CC(CN2C(=O)C3(CCOC3)N=C2c2ccc(-c3ccc4cccnc4c3)cc2)C1 (centres unmarked) [compound 942, 3-((1-(methylsulfonyl)azetidin-3-yl)methyl)-2-(4-(quinolin7-yl)phenyl)-7-oxa-1,3-diazaspiro[4.4]non-1-en-4-one] |
| 1% | > 10 µM | CS(=O)(=O)N1CC[C@@H](CN2C(=O)C3(CCOC3)N=C2c2ccc(-c3ccc4occc4c3)cc2)C1 (stereo partly drawn) [compound 914, 2-(4-(benzofuran-5-yl)phenyl)-3-(((S)-1-(methylsulfonyl)pyrrolidin-3-yl)methyl)-7-oxa-1,3-diazaspiro[4.4]non-1-en-4-one] |
| 21.3% | > 10 µM | O=C(C1CC1)N1CC[C@@H](CN2C(=O)C3(CCCC3)N=C2c2ccc(-c3ccc(-c4nn[nH]n4)cc3)cc2)C1 [compound 91, 3-{[(3R)-1-(Cycloprropylcarbonyl)pyrrolidin-3-yl]methyl}-2-[4′-(2H-tetrazol-5-yl)biphenyl-4-yl]-1,3-diazaspiro[4.4]non-1-en-4-one] |
| 94.3% | 0.589 µM | N#CC1(C(=O)N2CC[C@@H](CN3C(=O)C4(CCCC4)N=C3c3ccc(-c4ccc5occc5c4)cc3)C2)CC1 [compound 192, 1-{[(3R)-3-({2-[4-(1-Benzofuran-5-yl)phenyl]-4-oxo-1,3-diazaspiro[4.4]non-1-en-3-yl}methyl)pyrrolidin-1-yl]carbonyl}cyclopropancarbonitrile] |
| 62% | 5.25 µM | Cc1oc2ccc(-c3ccc(C4=NC5(CC5)C(=O)N4CC4CN(C(=O)C5CC5)C4)cc3F)cc2c1C [compound 417, 6-{[1-(Cyclopropylcarbonyl)azetidin-3-yl]methyl}-5-[4-(2,3-dimethyl-1-benzofuran-5-yl)-3-fluorophenyl]-4,6-diazaspiro[2.4]hept-4-en-7-one] |
| 43% | 5.89 µM | CC(O)C(=O)N1CC(CN2C(=O)C3(CCOCC3)N=C2c2ccc(-c3ccc(-c4cnn(C)c4)cc3)cc2)C1 (centres unmarked) [compound 695, 3-{[1-(2-Hydroxypropanoyl)azetidin-3-yl]methyl}-2-[4′-(1-methyl-1H-pyrazol-4-yl)biphenyl-4-yl]-8-oxa-1,3-diazaspiro[4.5]dec-1-en-4-one] |
| 16.7% | > 10 µM | O=C1N(C[C@@H]2CCN(S(=O)(=O)N3CCCC3)C2)C(c2ccc(-c3ccc4occc4c3)cc2)=NC12CCCC2 [compound 189, 2-[4-(1-Benzofuran-5-yl)phenyl]-3-{[(3S)-1-(pyrrolidin-1-ylsulfonyl)pyrrolidin-3-yl]methyl}-1,3-diazaspiro[4.4]non-1-en-4-one] |
| 5% | > 10 µM | O=C(C1CC1)N1CCC[C@@H](CN2C(=O)C3(CC3)N=C2c2ccc(-c3ccc(O)cc3)cc2)C1 [compound 925, (R)-6-((1-(cyclopropanecarbonyl)piperidin-3-yl)methyl)-5-(4′-hydroxy-[1,1′-biphenyl]-4-yl)-4,6-diazaspiro[2.4]hept-4-en-7-one] |
| 6% | > 10 µM | COC(=O)N1CC2(C1)N=C(c1ccc(-c3ccc(-c4cnn(C)c4)cc3)cc1)N(C[C@@H]1CCN(C(=O)c3nccs3)C1)C2=O [compound 929, (R)-methyl 6-(4′-(1-methyl-1H-pyrazol-4-yl)-[1,1′-biphenyl]-4-yl)-8-oxo-7-((1-(thiazole-2-carbonyl)pyrrolidin-3-yl)methyl)-2,5,7-triazaspiro[3.4]oct-5-ene-2-carboxylate] |
| 65% | 3.31 µM | Cn1ncc2cc(-c3cnc(C4=NC5(CC5)C(=O)N4C[C@@H]4CCN(C(=O)C5CC5)C4)nc3)ccc21 [compound 438, 6-{[(3R)-1-(Cyclopropylcarbonyl)pyrrolidin-3-yl]methyl}-5-[5-(1-methyl-1H-indazol-5-yl)pyrimidin-2-yl]-4,6-diazaspiro[2.4]hept-4-en-7-one] |
| -2% | > 10 µM | Cn1ncc2cc(-c3ccc(C4=NC5(CCOCC5)C(=O)N4CC4CN(C(=O)C(F)(F)F)C4)cc3)ccc21 [compound 935, 2-(4-(1-methyl-1H-indazol-5-yl)phenyl)-3-((1-(2,2,2-trifluoroacetyl)azetidin-3-yl)methyl)-8-oxa-1,3-diazaspiro[4.5]dec-1-en-4-one] |
| 42.7% | > 10 µM | O=C(C1CC1)N1CC[C@@H](CN2C(=O)C3(CCCC3)N=C2c2ccc(-c3ccccn3)cc2)C1 [compound 18, 3-{[(3R)-1-(Cyclopropylcarbonyl)pyrrolidin-3-yl]methyl}-2-(4-pyridin-2-ylphenyl)-1,3-diazaspiro[4.4]non-1-en-4-one] |
| 1% | > 10 µM | Cn1cc(-c2ccc(-c3ccc(C4=NC5(CC5)C(=O)N4C[C@H]4CCCN(C(=O)C5CC5)C4)cc3)cc2)cn1 [compound 815, (S)-6-((1-(cyclopropanecarbonyl)piperidin-3-yl)methyl)-5-(4′-(1-methyl-1H-pyrazol-4-yl)-[1,1′-biphenyl]-4-yl)-4,6-diazaspiro[2.4]hept-4-en-7-one] |
| 119% | 0.0692 µM | CN(C)CC(=O)N1CCC2(CC1)N=C(c1ccc(-c3ccc4cnccc4c3)cc1)N(C[C@@H]1CCN(C(=O)C3CC3)C1)C2=O [compound 142, 3-{[(3R)-1-(Cyclopropylcarbonyl)pyrrolidin-3-yl]methyl}-8-(N,N-dimethylglycyl)-2-(4-isoquinolin-6-ylphenyl)-1,3,8-triazaspiro[4.5]dec-1-en-4-one] |
| 109% | 0.123 µM | CC(=O)N1CCC2(CC1)N=C(c1ccc(-c3ccc4sc(C)c(C)c4c3)cc1)N(C[C@@H]1CCN(C(=O)C3CC3)C1)C2=O [compound 181, 8-Acetyl-3-{[(3R)-1-(cyclopropylcarbonyl)pyrrolidin-3-yl]methyl}-2-[4-(2,3-dimethyl-1-benzothiophen-5-yl)phenyl]-1,3,8-triazaspiro[4.5]dec-1-en-4-one] |
| 58.7% | 5.62 µM | Cc1ccc(-c2ccc(C3=NC4(CC4)C(=O)N3CC3CCN(C(=O)C4CC4)CC3)cc2)cc1 [compound 97, 6-{[1-(Cyclopropylcarbonyl)piperidin-4-yl]methyl}-5-(4′-methylbiphenyl-4-yl)-4,6-diazaspiro[2.4]hept-4-en-7-one] |
| 10% | > 10 µM | COC(=O)N1CC(CN2C(=O)C3(CCOCC3)N=C2c2ccc(-c3ccc4occc4c3)cc2)C1 [compound 928] |
| -4% | > 10 µM | O=C(c1nccs1)N1CC(CN2C(=O)C3(CCOCC3)N=C2c2ccc(-c3ccc4occc4c3)cc2)C1 [compound 949, 2-(4-(benzofuran-5-yl)phenyl)-3-((1-(thiazole-2-carbonyl)azetidin-3-yl)methyl)-8-oxa-1,3-diazaspiro[4.5]dec-1-en-4-one] |
| 44% | > 10 µM | Nc1cncc(-c2ccc(C3=NC4(CC4)C(=O)N3C[C@@H]3CCN(C(=O)C4CC4)C3)cc2)c1 [compound 867, (R)-5-(4-(5-aminopyridi9n-3-yl)phenyl)-6-((1-(cyclopropanecarbonyl)pyrrolidin-3-yl)methyl)-4,6-diazaspiro[2.4]hept-4-en-7-one] |
| 69% | 2.45 µM | Cn1cc(-c2ccc(-c3ccc(C4=NC5(CCOC5)C(=O)N4CC4CN(C(=O)[C@H]5CCCO5)C4)cc3)cc2)cn1 (stereo partly drawn) [compound 712, 2-[4′-(1-Methyl-1H-pyrazol-4-yl)biphenyl-4-yl]-3-({1-[(2R)-tetrahydro-furan-2-ylcarbonyl]azetidin-3-yl}methyl)-7-oxa-1,3-diazaspiro[4.4]non-1-en-4-one] |
| -7% | > 10 µM | Cn1cc(-c2ccc(-c3ccc(C4=NC5(CCOCC5)C(=O)N4CC4CN(S(C)(=O)=O)C4)cc3)cc2)cn1 [compound 921, 2-(4′-(1-methyl-1H-pyrazol-4-yl)-[1,1′-biphenyl]-4-yl)-3-((1-(methylsulfonyl)azetidin-3-yl)methyl)-8-oxa-1,3-diazaspiro[4.5]dec-1-en-4-one] |
| 105% | 0.295 µM | O=C([C@@H]1CCCO1)N1CC[C@@H](CN2C(=O)C3(CCCC3)N=C2c2ccc(-c3ccc4occc4c3)cc2)C1 [compound 190, 2-(4-(Benzofuran-5-yl)phenyl)-3-(((R)-1-((S)-tetrahydro-furan-2-carbonyl)pyrrolidin-3-yl)methyl)-1,3-diazaspiro[4.4]non-1-en-4-one] |
| 72% | 1.7 µM | Cn1cc(-c2ccc(-c3ccc(C4=NC5(CCOCC5)C(=O)N4CC4CN(C(=O)[C@H]5CCCO5)C4)cc3)cc2)cn1 [compound 696, 2-[4′-(1-Mehtyl-1H-pyrazol-4-yl)biphenyl-4-yl]-3-({1-[(2R)-tetrahydro-furan-2-ylcarbonyl]azetidin-3-yl}methyl)-8-oxa-1,3-diazaspiro[4.5]dec-1-en-4-one] |
| 64.6% | 3.98 µM | O=C(C1CC1)N1CC[C@@H](CN2C(=O)C3(CC3)N=C2c2ccc(-c3ccc(OC(F)(F)F)cc3)cc2)C1 [compound 125, 6-{[(3R)-1-(Cyclopropylcarbonyl)pyrrolidin-3-yl]methyl}-5-[4′-(trifluoromethoxy)biphenyl-4-yl]-4,6-diazaspiro[2.4]hept-4-en-7-one] |
